We go through 18 compounds from ChEMBL document CHEMBL1130609, “2-Pyridinyl-3-(4-methylsulfonyl)phenylpyridines: selective and orally active cyclooxygenase-2 inhibitors” (Bioorg Med Chem Lett, 1998).

Where only a bound is given, the exact number is not on record here.

In data set [1] the target is T1, Prostaglandin G/H synthase 2 (Homo sapiens, UniProt P35354).
T1 sequence (P35354 whole entry): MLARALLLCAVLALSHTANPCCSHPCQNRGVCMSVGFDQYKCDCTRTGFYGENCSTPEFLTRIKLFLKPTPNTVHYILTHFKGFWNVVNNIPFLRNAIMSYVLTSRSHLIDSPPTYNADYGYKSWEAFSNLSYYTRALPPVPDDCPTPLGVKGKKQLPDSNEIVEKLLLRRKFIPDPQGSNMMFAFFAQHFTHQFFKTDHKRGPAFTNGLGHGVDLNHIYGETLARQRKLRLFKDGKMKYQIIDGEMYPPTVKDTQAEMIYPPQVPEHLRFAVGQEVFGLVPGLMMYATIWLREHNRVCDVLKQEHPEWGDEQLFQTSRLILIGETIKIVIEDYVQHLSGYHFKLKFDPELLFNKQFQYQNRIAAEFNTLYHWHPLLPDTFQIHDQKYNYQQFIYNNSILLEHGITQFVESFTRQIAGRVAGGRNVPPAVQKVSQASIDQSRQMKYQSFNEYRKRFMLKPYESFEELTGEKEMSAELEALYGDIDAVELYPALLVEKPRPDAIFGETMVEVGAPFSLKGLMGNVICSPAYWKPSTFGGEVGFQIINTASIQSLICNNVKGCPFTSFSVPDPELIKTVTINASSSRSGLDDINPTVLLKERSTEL
Description: Inhibition of Prostaglandin G/H synthase 2 was measured by the inhibition of PGE-2 produced by lipopolysaccharide-challenged HWB

For data set [2], the target named is Prostaglandin G/H synthase 1 (Homo sapiens, UniProt P23219). Kind of data set: Inhibition of Prostaglandin G/H synthase 1 was measured by the inhibition of PGE-2 produced by microsomes from U937 cells at subsaturating arachidonic acid conc. The data set is classed as cell-based, U-937.
Prostaglandin G/H synthase 1, sequence (P23219 whole entry): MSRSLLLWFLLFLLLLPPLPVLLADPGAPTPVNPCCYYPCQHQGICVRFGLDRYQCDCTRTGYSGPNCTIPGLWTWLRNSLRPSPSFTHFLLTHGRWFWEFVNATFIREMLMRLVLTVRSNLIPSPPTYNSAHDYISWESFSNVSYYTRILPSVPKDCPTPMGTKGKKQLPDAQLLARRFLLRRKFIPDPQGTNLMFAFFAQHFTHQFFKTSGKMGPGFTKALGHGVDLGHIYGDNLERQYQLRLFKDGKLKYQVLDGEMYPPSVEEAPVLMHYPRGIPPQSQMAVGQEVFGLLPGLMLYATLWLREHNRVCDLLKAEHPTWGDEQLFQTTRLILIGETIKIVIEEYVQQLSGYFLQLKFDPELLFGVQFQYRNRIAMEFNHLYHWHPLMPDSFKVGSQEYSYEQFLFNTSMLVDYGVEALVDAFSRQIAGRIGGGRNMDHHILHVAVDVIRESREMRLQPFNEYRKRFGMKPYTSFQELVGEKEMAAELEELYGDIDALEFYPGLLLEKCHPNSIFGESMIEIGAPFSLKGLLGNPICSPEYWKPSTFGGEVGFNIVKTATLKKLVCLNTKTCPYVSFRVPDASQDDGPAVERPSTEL
The nature of data set [3]: Compound was evaluated for plasma concentration in rats when administered at 20 mg/kg in methocel at 2 hr. Also noted: dose 20 mg/kg. It is filed as ADME, organism-based. The following applies: rat, read-out: Cmax.
Data set [4] concerns Rattus norvegicus. The experiment in a line: Efficacy in rat pyresis assay upon oral administration. It is filed as functional.
Data set [5] relates to Rattus norvegicus. Kind of data set: Efficacy in rat paw edema assay upon oral administration. It is filed as functional.
The target of data set [6] is T1, Prostaglandin G/H synthase 2. Kind of data set: In vitro inhibition of PGE-2 produced by arachidonic acid-stimulated CHO cells stably expressing human Prostaglandin G/H synthase 2.
Data set [7] is described as follows: Compound was evaluated for plasma concentration in rats when administered at 20 mg/kg in methocel at 0.5 hr. The data set is classed as ADME, organism-based. Also on record: dose 20 mg/kg. The following applies: rat, read-out: Cmax.
The nature of data set [8]: Compound was evaluated for plasma concentration in rats when administered at 20 mg/kg in methocel at 1 hr. It is filed as ADME, organism-based. Also on record: dose 20 mg/kg. The following applies: rat, read-out: Cmax.
The subject of data set [9] is Rattus norvegicus. Kind of data set: In vivo potency at 20 mg/kg in the rat paw edema assay. The data set is classed as functional.
For data set [10], the system named is Rattus norvegicus. Kind of data set: In vivo potency at 10 mg/kg in the rat paw edema assay. The data set is classed as functional.
The subject of data set [11] is Rattus norvegicus. Kind of data set: Compound was evaluated for efficacy in rat paw edema assay upon oral administration. The data set is classed as functional.
Data set [12] relates to Rattus norvegicus. The experiment in a line: In vivo inhibitory dose in adjuvant-induced arthritis in rats. It is filed as functional.
The subject of data set [13] is Rattus norvegicus. The experiment in a line: In vivo inhibitory dose in carrageenan-induced hyperalgesia in rats. It is filed as functional. The following applies: read-out: ID50 (the source's name).

For orientation: IC50 means the concentration that gives 50% inhibition. A higher IC50 goes with weaker potency. The term inhibition in vivo denotes the relative decrease from the control value, in per cent. High values mean strong suppression, low ones little suppression.

On to `CS(=O)(=O)c1ccc(-c2cc(Cl)cnc2-c2cccnc2)cc1`, for which the IC50 in data set [1] stood at 900 nM; in [2], 19000 nM; in data set [6], 34 nM. Also, in data set [3], the concentration at 2 h stood at 52 µM. The ED50 stood at 0.8 mg/kg with Rattus norvegicus [4] and 2.3 mg/kg in the data set on Rattus norvegicus [5].
Regarding `Cc1cnc(-c2cccnc2)c(-c2ccc(S(C)(=O)=O)cc2)c1`, the IC50 is 2100 nM in data set [1], 59000 nM in data set [2] and 350 nM in [6].
In data set [2], `CS(=O)(=O)c1ccc(-c2cc(C(F)(F)F)cnc2-c2cccnc2)cc1` registered an IC50 of 31000 nM. In addition, in data set [3], the concentration at 2 h amounted to 24 µM. The ED50 in the data set with Rattus norvegicus [4] was found to be 1.4 mg/kg; with Rattus norvegicus [5], 1.7 mg/kg.
As for `CS(=O)(=O)c1ccc(-c2cccnc2-c2ccccc2)cc1`, in data set [2], 20000 nM corresponded to half-maximal inhibition (IC50). In the data set with Rattus norvegicus [5], this compound registered an ED50 of over 10 mg/kg. In addition, the concentration at 0.5 h in data set [7] came to 40 µM.
In the case of `Cc1ncccc1-c1ncc(Cl)cc1-c1ccc(S(C)(=O)=O)cc1`, the IC50 turned out to be 2600 nM in data set [1], 45000 nM in data set [2] and 1330 nM in [6].
Turning to `CS(=O)(=O)c1ccc(-c2cc(Cl)cnc2-c2ccncc2)cc1`, in data set [2], the IC50 is 81000 nM.
In turn, `CCc1ccc(-c2ncc(Cl)cc2-c2ccc(S(C)(=O)=O)cc2)cn1` had an IC50 in data set [2] of 13000 nM. In addition, the ED50 in the data set on Rattus norvegicus [4] stood at 2.6 mg/kg; in the data set with Rattus norvegicus [5], 1.6 mg/kg. Moreover, the concentration at 0.5 h in data set [7] is 9 µM.
In [2], `Cc1ccc(-c2ncc(Cl)cc2-c2ccc(S(C)(=O)=O)cc2)cn1` [ETORICOXIB] yielded an IC50 of 12000 nM. Also, the concentration at 1 h in data set [8] worked out at 30 µM. For the same compound, the ED50 in the data set on Rattus norvegicus [4] turned out to be 0.5 mg/kg; with Rattus norvegicus [5] it was 0.6 mg/kg.
In the case of `CS(=O)(=O)c1ccc(-c2cccnc2-c2cccnc2)cc1`, the IC50 is over 33000 nM in data set [1], over 100000 nM in data set [2] and 610 nM in data set [6].
Consider `COc1cc(-c2ccc(S(C)(=O)=O)cc2)c(-c2ccc(F)cc2)c(C(F)(F)F)n1`, for which 20 mg/kg produced 12% inhibition in vivo in the data set with Rattus norvegicus [9].
On to `Cc1cncc(-c2ncc(Cl)cc2-c2ccc(S(C)(=O)=O)cc2)c1`, for which the figures for the IC50 in data set [1], in [2] and in [6] were 3800 nM, over 100000 nM and 87 nM, respectively.
Regarding `COc1nc(-c2ccc(F)cc2)c(-c2ccc(S(C)(=O)=O)cc2)cc1C#N`, the inhibition in vivo at 10 mg/kg with Rattus norvegicus [10] came out at 16%.
For `CS(=O)(=O)c1ccc(-c2cc(Cl)cnc2-c2ccc(C3CC3)nc2)cc1`, the IC50 in data set [2] was found to be 6000 nM; in data set [6] it was 16 nM. The concentration at 2 h in data set [3] was 9 µM. In addition, the ED50 in the data set on Rattus norvegicus [4] stood at 4.9 mg/kg; in the data set on Rattus norvegicus [5], 2 mg/kg.
Regarding `CS(=O)(=O)c1ccc(-c2cc(Cl)cnc2-c2ccccn2)cc1`, the IC50 in data set [1] is 5800 nM; in data set [2] it was 63000 nM; in data set [6], 68 nM.
Taken in the same sequence, the figures for `Cc1ccncc1-c1ncc(Cl)cc1-c1ccc(S(C)(=O)=O)cc1` were 2700 nM, over 100000 nM and 830 nM.
In the case of `Cc1ccc(-c2ncc(Cl)cc2-c2ccc(S(N)(=O)=O)cc2)cn1`, the IC50 in data set [1] is 2400 nM; in data set [2] it was 800 nM; in [6], 23 nM.
In the data set on Rattus norvegicus [5], `CS(=O)(=O)c1ccc(-c2cc(Br)sc2-c2ccc(F)cc2)cc1` [DUP-697] had an ED50 of 1.3 mg/kg.
`COc1ccc2c(c1)c(CC(=O)O)c(C)n2C(=O)c1ccc(Cl)cc1` [INDOMETHACIN]: the ED50 was 2 mg/kg with Rattus norvegicus [11], 1.1 mg/kg in the data set on Rattus norvegicus [4] and 1.5 mg/kg in the data set on Rattus norvegicus [13]. Also, the ID50 in the data set on Rattus norvegicus [12] was determined as 0.2 mg kg-1 day-1 b.i.d.
